Results on 27 compounds are retold here after patent publication US10894784B2, “Heteroarylbenzimidazole compounds” (BAYER PHARMA AKTIENGESELLSCHAFT, priority 2015, dated 2021).

SMILES strings stand for the structures.

In the assay the target is TBK1 (Homo sapiens (Human), UniProt Q9UHD2). The assay can be described thus: TBK1 low ATP kinase assay (in vitro assay 1). It is filed as biochemical. To be noted: in vitro assay 1, read-out: TBK1 low ATP kinase assay IC50.
Chain of TBK1 (Q9UHD2 whole entry): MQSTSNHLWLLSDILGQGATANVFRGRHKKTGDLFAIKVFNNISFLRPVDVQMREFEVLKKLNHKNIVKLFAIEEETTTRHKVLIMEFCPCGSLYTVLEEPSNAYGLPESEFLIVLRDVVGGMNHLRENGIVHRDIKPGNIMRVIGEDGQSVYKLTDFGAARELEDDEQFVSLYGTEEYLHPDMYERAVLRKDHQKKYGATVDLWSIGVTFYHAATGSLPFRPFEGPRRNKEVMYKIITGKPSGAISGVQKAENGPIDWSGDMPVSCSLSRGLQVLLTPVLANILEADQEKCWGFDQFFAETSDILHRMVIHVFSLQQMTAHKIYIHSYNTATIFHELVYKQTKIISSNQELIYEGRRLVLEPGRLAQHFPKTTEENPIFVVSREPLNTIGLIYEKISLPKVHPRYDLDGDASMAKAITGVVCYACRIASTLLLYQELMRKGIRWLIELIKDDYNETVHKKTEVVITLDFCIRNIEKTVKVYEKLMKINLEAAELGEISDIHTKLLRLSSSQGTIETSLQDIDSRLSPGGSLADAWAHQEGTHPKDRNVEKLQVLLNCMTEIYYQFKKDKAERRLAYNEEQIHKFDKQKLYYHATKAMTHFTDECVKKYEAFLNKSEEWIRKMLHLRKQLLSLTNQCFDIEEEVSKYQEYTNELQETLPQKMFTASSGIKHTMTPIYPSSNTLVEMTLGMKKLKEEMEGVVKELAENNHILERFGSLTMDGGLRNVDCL
Take `CC(c1ccnc(Nc2nc3ccc(-c4cnn(CC5(Cl)CC5)c4)cc3[nH]2)c1)N1CCN(C(=O)CC(F)(F)F)CC1` (single isomer, unassigned) [Example 69.02, 1-{4-[(1R or 1S)-1-{2-[(6-{1-[(1-chlorocyclopropyl)methyl]-1H-pyrazol-4-yl}-1H-benzimidazol-2-yl)amino]pyridin-4-yl}ethyl]piperazin-1-yl}-3,3,3-trifluoropropan-1-one]: the IC50 stood at 0.64 nM. `COCc1cc(-c2ccc3nc(Nc4cc(C(C)N5CCN(C(=O)CC(F)(F)F)CC5)ccn4)[nH]c3c2Cl)ncn1` (single isomer, unassigned) [Example 99.01, 1-(4-{(1R or 1S)-1-[2-({7-chloro-6-[6-(methoxymethyl)pyrimidin-4-yl]-1H-benzimidazol-2-yl}amino)pyridin-4-yl]ethyl}piperazin-1-yl)-3,3,3-trifluoropropan-1-one]: the IC50 turned out to be 33 nM.

For the compound `COc1c(NC2CCC2)ncnc1-c1ccc2nc(Nc3cc(C(C)N4CCN(C(=O)C5CC5)CC4)ccn3)[nH]c2c1` (single isomer, unassigned) [Example 114.03, (4-{(1R or 1S)-1-[2-({6-[6-(cyclobutylamino)-5-methoxypyrimidin-4-yl]-1H-benzimidazol-2-yl}amino)pyridin-4-yl]ethyl}piperazin-1-yl)(cyclopropyl)methanone], the IC50 was 8.07 nM. Regarding `Nc1cc(-c2ccc3nc(Nc4cc(CN5CCN(C(=O)CC(F)(F)F)CC5)ccn4)[nH]c3c2)ccn1` [Example 138.02, 1-{4-[(2-{[6-(2-aminopyridin-4-yl)-1H-benzimidazol-2-yl]amino}pyridin-4-yl)methyl]piperazin-1-yl}-3,3,3-trifluoropropan-1-one], the IC50 amounted to 4.1 nM. The figure for `Cc1noc(-c2ccc3nc(Nc4cc(C(C)N5CCN(C(=O)OC(C)(C)C)CC5)ccn4)[nH]c3c2)n1` (racemic) [Example 16.05.01, (rac)-tert-butyl 4-[1-(2-{[6-(3-methyl-1,2,4-oxadiazol-5-yl)-1H-benzimidazol-2-yl]amino}pyridin-4-yl)ethyl]piperazine-1-carboxylate] is 82.5 nM. As to `CC(C)(C)OC(=O)N1CCN(Cc2ccnc(Nc3nc4ccc(-c5ccnc(OCC6CC6)n5)cc4[nH]3)c2)CC1` [Example 62.01.01, tert-butyl 4-{[2-({6-[2-(cyclopropylmethoxy)pyrimidin-4-yl]-1H-benzimidazol-2-yl}amino)pyridin-4-yl]methyl}piperazine-1-carboxylate], the IC50 amounted to 57.3 nM.

Turning to `Cc1cc(-c2ccc3nc(Nc4cc(CN5CCN(C(=O)OC(C)(C)C)CC5)ccn4)[nH]c3c2)ccn1` [Example 01.01, tert-butyl 4-[(2-{[6-(2-methylpyridin-4-yl)-1H-benzimidazol-2-yl]amino}pyridin-4-yl)methyl]piperazine-1-carboxylate], the IC50 was determined as 150 nM.

Consider `Cc1noc(-c2ccc3nc(Nc4cc(CN5CCN(C=O)CC5)ccn4)[nH]c3c2)n1` [Example 101.01, 4-[(2-{[6-(3-methyl-1,2,4-oxadiazol-5-yl)-1H-benzimidazol-2-yl]amino}pyridin-4-yl)methyl]piperazine-1-carbaldehyde], for which the IC50 came to 680 nM. The figure for `CN(C)c1ccnc(-c2ccc3nc(Nc4cc(CN5CCN(C(=O)C6CC6)CC5)ccn4)[nH]c3c2)n1` [Example 181.03, cyclopropyl(4-{[2-({6-[4-(dimethylamino)pyrimidin-2-yl]-1H-benzimidazol-2-yl}amino)pyridin-4-yl]methyl}piperazin-1-yl)methanone] is 362 nM. For `CC(C)(C)OC(=O)N1CCN(Cc2ccnc(Nc3nc4ccc(-c5ccnc(N)c5)cc4[nH]3)c2)CC1` [Example 138.01, tert-butyl 4-[(2-{[6-(2-aminopyridin-4-yl)-1H-benzimidazol-2-yl]amino}pyridin-4-yl)methyl]piperazine-1-carboxylate], the IC50 came to 5.8 nM. The figure for `CC(c1ccnc(Nc2nc3ccc(-c4cc(C(F)F)ncn4)cc3[nH]2)c1)N1CCN(C(=O)OC(C)(C)C)CC1` (single isomer, unassigned) [Example 174.01, tert-butyl 4-{(1R or 1S)-1-[2-({6-[6-(difluoromethyl)pyrimidin-4-yl]-1H-benzimidazol-2-yl}amino)pyridin-4-yl]ethyl}piperazine-1-carboxylate] is 11.1 nM. Regarding `O=C(C1CC1)N1CCN(Cc2ccnc(Nc3nc4ccc(-c5ccnc(OCC6CC6)n5)cc4[nH]3)c2)CC1` [Example 62.01.04, cyclopropyl(4-{[2-({6-[2-(cyclopropylmethoxy)pyrimidin-4-yl]-1H-benzimidazol-2-yl}amino)pyridin-4-yl]methyl}piperazin-1-yl)methanone], the IC50 was 5.19 nM. `CCOc1c(-c2cnn(CC)c2)ccc2nc(Nc3cc(CN4CCN(C(=O)CC(F)(F)F)CC4)ccn3)[nH]c12` [Example 53.01, 1-{4-[(2-{[7-ethoxy-6-(1-ethyl-1H-pyrazol-4-yl)-1H-benzimidazol-2-yl]amino}pyridin-4-yl)methyl]piperazin-1-yl}-3,3,3-trifluoropropan-1-one]: the IC50 stood at 132 nM. The figure for `O=C(CC(F)(F)F)N1CCN(Cc2ccnc(Nc3nc4ccc(-c5cc(N6CCCCC6)ncn5)cc4[nH]3)c2)CC1` [Example 145.02, 3,3,3-trifluoro-1-(4-{[2-({6-[6-(piperidin-1-yl)pyrimidin-4-yl]-1H-benzimidazol-2-yl}amino)pyridin-4-yl]methyl}piperazin-1-yl)propan-1-one] is 2.9 nM. In the case of `O=C(CC(F)(F)F)N1CCN(Cc2ccnc(Nc3nc4ccc(-c5ncnc6ccoc56)cc4[nH]3)c2)CC1` [Example 168.02, 3,3,3-trifluoro-1-{4-[(2-{[6-(furo[3,2-d]pyrimidin-4-yl)-1H-benzimidazol-2-yl]amino}pyridin-4-yl)methyl]piperazin-1-yl}propan-1-one] it was 4.18 nM; in that of `COc1c(-c2ccc3nc(Nc4cc(C(C)N5CCN(C(=O)C6CC6)CC5)ccn4)[nH]c3c2)ncnc1N1CCC1` (single isomer, unassigned) [Example 111.02, (4-{(1R or 1S)-1-[2-({6-[6-(azetidin-1-yl)-5-methoxypyrimidin-4-yl]-1H-benzimidazol-2-yl}amino)pyridin-4-yl]ethyl}piperazin-1-yl)(cyclopropyl)methanone], 1 nM.

As for `Cc1ncc(-c2ccc3nc(Nc4cc(CN5CCN(C(=O)C6CC6)CC5)ccn4)[nH]c3c2)cn1` [Example 45.03.02, cyclopropyl{4-[(2-{[6-(2-methylpyrimidin-5-yl)-1H-benzimidazol-2-yl]amino}pyridin-4-yl)methyl]piperazin-1-yl}methanone], the IC50 was found to be 1330 nM. In the case of `CC(C)Oc1cnccc1-c1ccc2nc(Nc3cc(CN4CCN(C(=O)CC(F)(F)F)CC4)ccn3)[nH]c2c1` [Example 06.01, 3,3,3-trifluoro-1-(4-{[2-({6-[3-(propan-2-yloxy)pyridin-4-yl]-1H-benzimidazol-2-yl}amino)pyridin-4-yl]methyl}piperazin-1-yl)propan-1-one] it was 4.31 nM; in that of `COc1cnc(OCC2CC2)nc1-c1ccc2nc(Nc3cc(CN4CCN(C(=O)C5CC5)CC4)ccn3)[nH]c2c1` [Example 64.01.02, cyclopropyl(4-{[2-({6-[2-(cyclopropylmethoxy)-5-methoxypyrimidin-4-yl]-1H-benzimidazol-2-yl}amino)pyridin-4-yl]methyl}piperazin-1-yl)methanone], 33.7 nM; in that of `CC(C)(C)OC(=O)N1CCN(Cc2ccnc(Nc3nc4ccc(-c5ccnc(F)c5)cc4[nH]3)c2)CC1` [Example 137.01, tert-butyl 4-[(2-{[6-(2-fluoropyridin-4-yl)-1H-benzimidazol-2-yl]amino}pyridin-4-yl)methyl]piperazine-1-carboxylate], 13 nM. `O=C(CC(F)(F)F)N1CCN(Cc2ccnc(Nc3nc4ccc(-c5cnn(CC(F)(F)F)c5)cc4[nH]3)c2)CC1` [Example 58.01.02, 3,3,3-trifluoro-1-(4-{[2-({6-[1-(2,2,2-trifluoroethyl)-1H-pyrazol-4-yl]-1H-benzimidazol-2-yl}amino)pyridin-4-yl]methyl}piperazin-1-yl)propan-1-one]: the IC50 came out at 9.81 nM. In the case of `CC(C)(C)OC(=O)N1CCN(Cc2ccnc(Nc3nc4ccc(-c5cc(NCCO)ncn5)cc4[nH]3)c2)CC1` [Example 81.01, tert-butyl 4-({2-[(6-{6-[(2-hydroxyethyl)amino]pyrimidin-4-yl}-1H-benzimidazol-2-yl)amino]pyridin-4-yl}methyl)piperazine-1-carboxylate] it was 13 nM; in that of `CN(C)c1cc(-c2ccc3nc(Nc4cc(CN5CCN(C(=O)CC(F)(F)F)CC5)ccn4)[nH]c3c2)ncn1` [Example 143.02, 1-(4-{[2-({6-[6-(dimethylamino)pyrimidin-4-yl]-1H-benzimidazol-2-yl}amino)pyridin-4-yl]methyl}piperazin-1-yl)-3,3,3-trifluoropropan-1-one], 8.2 nM. For `O=C(C1CC1)N1CCN(Cc2ccnc(Nc3nc4ccc(-c5ccnc(C(F)F)c5)cc4[nH]3)c2)CC1` [Example 139.03, cyclopropyl(4-{[2-({6-[2-(difluoromethyl)pyridin-4-yl]-1H-benzimidazol-2-yl}amino)pyridin-4-yl]methyl}piperazin-1-yl)methanone], the IC50 turned out to be 9.7 nM. As to `Cc1noc(-c2ccc3nc(Nc4cc(CN5CCN(c6ccccc6F)CC5)ccn4)[nH]c3c2)n1` [Example 101.02, N-(4-{[4-(2-fluorophenyl)piperazin-1-yl]methyl}pyridin-2-yl)-6-(3-methyl-1,2,4-oxadiazol-5-yl)-1H-benzimidazol-2-amine], the IC50 amounted to 680 nM.

For `O=C(C1CC1)N1CCN(Cc2ccnc(Nc3nc4ccc(-c5cnc(C6CC6)nc5)cc4[nH]3)c2)CC1` [Example 45.04.01, cyclopropyl{4-[(2-{[6-(2-cyclopropylpyrimidin-5-yl)-1H-benzimidazol-2-yl]amino}pyridin-4-yl)methyl]piperazin-1-yl}methanone], the IC50 came out at 2240 nM. In the case of `CC(C)(C)OC(=O)N1CCN(Cc2ccnc(Nc3nc4ccc(-c5ncnc(NCC6CC6)c5F)cc4[nH]3)c2)CC1` [Example 195.01, tert-butyl 4-({2-[(6-{6-[(cyclopropylmethyl)amino]-5-fluoropyrimidin-4-yl}-1H-benzimidazol-2-yl)amino]pyridin-4-yl}methyl)piperazine-1-carboxylate], the IC50 amounted to 105 nM.

For orientation: IC50 means the concentration needed to halve the response being measured.
